Where two headings read alike, the source gives them in different places.
Assays:
[1] = Adsorbent study: binding affinity and adsorptive capacity for 3NOP (HPLC at 230 nm)
Description: The solution was then placed in an ultrasonic bath for ˜4 hr and then allowed to equilibrate over 24 hr.

[2] = tested on: rumen methanogens; conditions: cited from earlier work; for suppression of CH4: bacteriocins, in vitro
[3] = tested on: CH4 production; conditions: cited from earlier work
[4] = tested on: cattle; conditions: cited from earlier work
[5] = 3NOP volatility (mass loss open to air); format: physicochemical; conditions: 500 mg open to air, 18-24° C., 15-30% RH, 6 days
Description: 3NOP Volatility:500 mg of 3NOP in a 5 dram vial was left open to air at ˜18-24° C. at 15-30% RH over the course of 6 days. Average mass loss is ˜0.25% per day.

[6] = 3NOP to adsorbent ratio study; format: physicochemical; conditions: distilled water at 1% 3NOP loading, 24 hr
Description: Optimal loading of 3NOP onto adsorbents was determined by varying ratios of 3NOP to adsorbent. 3NOP and adsorbent were speed mixed at 2000 rpm for 1 min. at the following ratios by weight: 1:1.5, 1:2, 1:2.5. The adsorbed 3NOP powder mixture was then placed in distilled water at 1% 3NOP loading. The solution was allowed to equilibrate for 24 hr and then an aliquot was taken for HPLC to determine the reduction in 3NOP concentration.

[7] = tested on: sheep; conditions: cited from earlier work
[8] = 3NOP pH and temperature stability (HPLC); format: physicochemical; conditions: 1-month, 4-30° C., pH 4-10
Description: 3NOP pH and Temperature Stability: Confirmed via HPLC over a 1-month time period at temperature between 4-30° C. and pH 4-10.

[9] = tested on: rumen Methanobrevibacter; conditions: 5.6 μmol/L, in vitro; cited from earlier work
[10] = tested on: goats; conditions: 10 g/day/goat; cited from earlier work
[11] = tested on: Mbb. Ruminantium, Ms. Mazei, and Mm. mobile; conditions: cited from earlier work
[12] = 0.2 g of adsorbent in 10 mL of 1% 3NOP/H2O, after 24 hr, Control 8.258
[13] = dairy cows, 40-80 mg/kg feed DM
[14] = beef cattle, fed at […] of DM intake

Q: Which 3NOP concentration [1, 12] does the source give for `O=S(=O)([O-])[O-].O=S(=O)([O-])[O-].O=S(=O)([O-])[O-].[Bi+3].[Bi+3]` [Bismuth Sulfate] here?
A: 8.079 mM

Q: With `NC(=O)CC[C@H](N)C(=O)O` [Glutamine] as the compound, how does the 3NOP concentration [1, 12] read?
A: 7.588 mM

Q: What does the source list for `C#CC(=O)O` [propynoic acid]?
A: lowering of CH4 production ([2]; 6 mmol/L): 67%; lowering of CH4 production ([2]; 12 mmol/L): 78%

Q: Which “maximum methane suppression amount” value ([3]; 10 mmol/L) does the source give for `CC[N+](=O)[O-]` [NE] here?
A: 10 mmol/L; 96.7% (NE), 96.7%

Q: For `CC(CO)[N+](=O)[O-]` (stereo not drawn) [2-nitropropanol], which “lowering of CH4 production” value ([4]; steers) is on record?
A: 37%

Q: Which results are given for `O=[N+]([O-])OCCCO` [3NOP, 3-Nitrooxypropanol]?
A: degree of CH4 suppression ([4]; added to the rumen through rumen cannula, 0.50 or 2.5 g per cow daily): 7-10%; decrease of CH4 yield ([4]; beef cattle, 2.0 g/day/cow): 59%; persistence of inhibition ([4]; beef cattle, 2.0 g/day/cow): up to 112 days; decrease of CH4 production [4, 13]: about 30%; persistence of decrease [4, 13]: up to 84 days; Average mass loss [5]: ~0.25 % per day; Average Integrated Area of 3NOP in solution ([6]; 3NOP:Adsorbent 1:1.5): 2566.4; Average Integrated Area of 3NOP in solution ([6]; 3NOP:Adsorbent 1:2): 2566.4; Average Integrated Area of 3NOP in solution ([6]; 3NOP:Adsorbent 1:2.5): 2566.4; decrease of CH4 production ([7]; 0.5 g/day): 29%; pH and temperature stability [8]: Confirmed

Q: Which 3NOP concentration [1, 12] does the source give for Cyclodextrin here?
A: 7.676 mM

Q: Which “maximum suppression methane amount” value ([3]; 12 mM) does the source give for `O=C(O)/C=C/c1ccc(O)c(O)c1` [Caffeic acid] here?
A: 12 mM, Caffeic acid; 37.58%;

Q: Which “growth of three strains of rumen Methanobrevibacter” value [9] does the source give for `CC[C@H](C)C(=O)O[C@H]1CCC=C2C=C[C@H](C)[C@H](CC[C@@H]3C[C@@H](O)CC(=O)O3)[C@H]21` [mevastatin] here?
A: inhibited the growth

Q: For `O=C(O)CC(O)C(=O)O` (stereo not drawn) [Malate], which “decrease of CH4 production” value [4, 14] is on record?
A: 16%

Q: What about the “reduction of CH4 per unit of DM intake” value [4, 14] of the same compound?
A: 9%

Q: Which results are given for `O=C(O)/C=C/C(=O)O` [fumarate]?
A: decrease of CH4 production [10]: 11.9%; decrease of CH4 production ([2]; 3.5 g/L, continuous fermenters with forages as a substrate): 38%

Q: For `Oc1ccc(C=Cc2cc(O)cc(O)c2)cc1` [resveratrol], which “maximum suppression methane amount” value ([3]; 25 mg, high-concentrate diets) is on record?
A: high-concentrate diets; 41%

Q: And the “maximum suppression methane amount” value ([3]; 25 mg, high-forage diets)?
A: 25 mg, high-forage diets; 60%;

Q: For `CC[C@H](C)C(=O)O[C@H]1C[C@@H](C)C=C2C=C[C@H](C)[C@H](CC[C@@H]3C[C@@H](O)CC(=O)O3)[C@H]21` [lovastatin], which “reduction of CH4 production” value ([2]; Rusitec, 150 mg/L) is on record?
A: approximately 42%

Q: What about the “reduction of total CH4 production by rumen methanogens” value ([2]; extracted from fermented rice straw, 48 h in vitro incubation) of the same compound?
A: ~28%

Q: Which results are given for `O=[N+]([O-])O` [Nitrate]?
A: maximum methane suppression amount ([3]; 5 mM (Liu et al., 2017)): 5 mM; 43.26% Liu et al., 2017); maximum methane suppression amount ([3]; 5 mmol/L (Wu et al., 2019)): 5 mmol/L: 32.92%; maximum methane suppression amount ([3]; 20 mg/g dry matter (Alvarez-Hess et al. 2019)): 20 mg/g dry matter: 21%

Q: With `O=S(=O)(O)CCCBr` [BPS, 3-bromopropanesulfonate] as the compound, how does the sensitivity of methanogens ([11]; up to 250 μmol/L in pure cultures) read?
A: resistant

Q: For `C[N+](C)(C)CC(=O)O` [Betaine], which 3NOP concentration [1, 12] is on record?
A: 7.202 mM

Q: With `O=C([O-])CC(O)(CC(=O)[O-])C(=O)[O-].[Bi+3]` [Bismuth Citrate] as the compound, how does the 3NOP concentration [1, 12] read?
A: 8.072 mM

Q: Which “duration of inhibition of methanogenesis” value ([4]; drenching to cattle) does the source give for `ClC(Cl)Cl` [chloroform] here?
A: up to 32 days

Q: For `N=C(N)NCCC[C@H](N)C(=O)O` [Arginine], which “Average Integrated Area of 3NOP in solution” value (“Average Integrated Area” below) ([6]; 3NOP:Adsorbent 1:1.5) is on record?
A: 2406.0

Q: And the “Average Integrated Area” value ([6]; 3NOP:Adsorbent 1:2)?
A: 2372.8

Q: What about the “Average Integrated Area” value ([6]; 3NOP:Adsorbent 1:2.5) of the same compound?
A: 2435.2

Q: Which 3NOP concentration [1, 12] does the source give for `O=S(=O)([O-])[O-].[Cu+2]` [Copper Sulfate] here?
A: 7.814 mM

Q: Which “suppression of CH4” value [2] does the source give for Bovicin HC5 here?
A: 50%

Q: What does the source list for `CC[C@@]1([C@@H]2O[C@@H]([C@H]3O[C@@](O)(CO)[C@H](C)C[C@@H]3C)C[C@@H]2C)CC[C@H]([C@]2(C)CC[C@]3(C[C@H](O)[C@@H](C)[C@@H]([C@@H](C)[C@@H](OC)[C@H](C)C(=O)O)O3)O2)O1` [monensin]?
A: CH4 production by tropical cattle ([4]; 60 mg/day/cow): did not lower CH4 production; CH4 suppression ([4]; 10-15 ppm): no CH4 suppression; lowering of CH4 production (g/kg DM intake) ([4]; fed at 24-35 mg/kg diet): up to 10%; decrease of CH4 production ([4]; tropical cattle, 250 mg/day/cow): about 30%

Q: Which “decrease of CH4 production” value ([7]; orally 24 mg/kg body weight daily for 5 days) does the source give for `CC[N+](=O)[O-]` [nitroethane] here?
A: up to 45%

Q: What about the “decrease of CH4 production” value ([7]; orally 72 mg/kg body weight daily for 5 days) of the same compound?
A: ≤ 69%

Q: Which “Average Integrated Area” value ([6]; 3NOP:Adsorbent 1:1.5) does the source give for `N[C@@H](CCC(=O)O)C(=O)O` [Glutamic acid] here?
A: 2445.9

Q: And the “Average Integrated Area” value ([6]; 3NOP:Adsorbent 1:2)?
A: 2452.5

Q: And the “Average Integrated Area” value ([6]; 3NOP:Adsorbent 1:2.5)?
A: 2446.3

Q: Which toxicity / residues ([4]; steers fed grain-based diets) does the source give for `ClCBr` [BCM, bromochloromethane] here?
A: no signs of toxicity or residues in meat

Q: For `NCCCC[C@H](N)C(=O)O` [Lysine], which 3NOP concentration [1] is on record?
A: 18.583 mM

Q: And the “Average Integrated Area” value ([6]; 3NOP:Adsorbent 1:1.5)?
A: 2336.2

Q: And the “Average Integrated Area” value ([6]; 3NOP:Adsorbent 1:2)?
A: 2308.9

Q: What about the “Average Integrated Area” value ([6]; 3NOP:Adsorbent 1:2.5) of the same compound?
A: 2266.6

Q: For `O=[N+]([O-])OCCCO` [3-Nitrooxypropanol (NOP)], which “maximum methane suppression amount” value ([3]; 0.08 mg/g dry matter (2019)) is on record?
A: 0.08 mg/g dry matter; 44%

Q: And the “maximum methane suppression amount” value ([3]; 1.6 g, concentrate pellet)?
A: 23%

Q: And the “maximum methane suppression amount” value ([3]; 1.6 g, roughage)?
A: 28%

Q: For `O=c1[nH]c(=O)c2nccnc2[nH]1` [lumazin, 2,4-pteridinedione], which “CH4 production by pure methanogen cultures” value ([11]; dose-dependent from 0.06 to 0.24 mmol/L) is on record?
A: significantly decreased

Q: Which “maximum methane suppression amount” value ([3]; 10 mmol/L) does the source give for `CC(CO)[N+](=O)[O-]` (stereo not drawn) [NPOH] here?
A: (NEOH), 41.7% (NPOH)

Q: For Lactobacillus plantarum, which “maximum suppression methane amount” value ([3]; 5.3 lg cfu/g fresh weight, 72 h) is on record?
A: Lactobacillus plantarum, 8.8 ml/g(72 h)

Q: With `O=[N+]([O-])CCO` [NEOH] as the compound, how does the “maximum methane suppression amount” value ([3]; 10 mmol/L) read?
A: 10 mmol/L; 96.7% (NE), 96.7%

Q: For Nisin, which “suppression of CH4” value [2] is on record?
A: up to 40%

Q: With `O=C(O)/C=C/c1ccc(O)cc1` [p-coumaric acid] as the compound, how does the “maximum suppression methane amount” value ([3]; 12 mM) read?
A: p-coumaric acid; 28.33%
